Assay results from patent EP2601945A1 (Thomale, Jürgen, priority 2011, dated 2013).

Tested on: Pt-GG adducts in DNA
Test: In vivo screening for cis-platin uptake inhibitors and DPH co-administration, ICA of Pt-GG adducts
Design: species or system mice
Settings: 24 h; for inhibition of DNA platination in the three target cell types: independent of dosing (quinine 100 or 50 mg/kg, butylscopolamine 20 or 10 mg/kg) i.p. 1 h before cis-platin 10 mg/kg
Experimental: The sacrificed animals were immediately dissected. Kidneys and lungs were submerged in embedding medium (Tissue-Tek O.C.T. Compound) and frozen in liquid nitrogen. Cochleae were dissected and fixed by intralabyrinthine perfusion with Carnoy's solution (3 hours; for DNA adduct staining) or with formaldehyde (4 % in PBS; 1 hour; for OCT protein staining). Cochleae were decalcified in EDTA solution (10 % w/v in PBS) for 3 days and then placed in sucrose solutions (5 % in PBS for 12 hours and 15 % in PBS for 5 hours). After that samples were imbedded in Tissue-Tek medium, frozen and cryosections of 10 µm cut.
Frozen tissue sections of the inner ear or kidneys on ImmunoSelect slides were fixed in methanol at -20°C for at least 2 hours or overnight and then rehydrated for 10 minutes in PBS, at room temperature. To provide better antibody penetration in the tissue structures the samples underwent alkaline permeabilisation of cytoplasmic and nuclear membranes for 5 minutes at 0°C, followed by washing in PBS at room temperature for 5 minutes. The proteolytic cleavage of cytoplasmic and nuclear proteins was performed in two steps. At first, a pre-warmed pepsin solution (60 µg /ml for cell culture or 100 µg/ml for tissue sections in PBS/HCl) was applied onto the tissue sections and incubated for 10 minutes at 37°C in a humidified chamber. The incubation with pepsin was followed by washing in PBS for 10 minutes at room temperature. In a second step tissue sections were incubated with pre-warmed proteinase K solution (40 µg/ml for cell cultures or 50-100 µg /ml for tissue sections in proteinase K buffer) for 10 minutes at 37°C in a humidified chamber. Subsequently the sections were washed in 0.2 % glycine in PBS for 10 minutes at room temperature. Non-specific binding of the antibodies was inhibited by incubation with a blocking solution of 1 % casein in PBS for 30 minutes at room temperature. The samples were then incubated with a monoclonal antibody (R-C18, Liedert et al., 2006) specific for Pt-GG adducts in DNA (0.1 µg/ml in 0.1 % BSA/PBS) over night at 4°C in the humidified chamber. Subsequently, the slides were washed in 0.05 % Tween 20 in PBS for 5 minutes at room temperature and then in PBS for 5 minutes. The incubation with secondary Cy3-labeled rabbit anti-(rat Ig) antibodies, was performed (0.2 µg/ml in 0.1 % BSA/PBS) for 60 minutes at 37°C in the humidified chamber, followed by washing in 0.05 % Tween 20 in PBS for 5 minutes at room temperature and then in PBS for 5 minutes. The nuclear DNA was counterstained with DAPI (1 µg/ml in PBS) for 30 minutes at room temperature. The slides were then washed in PBS. Finally, the samples were embedded with a densification compound "[…]". The quantification of immuno- and DNA-fluorescence was performed by means of a microscope-coupled digital image analysis system ACAS 6.0 Cytometry Analysis System. Adduct levels in the nuclear DNA of individual cells were calculated by normalizing antibody-derived fluorescence signals to the corresponding DNA content of the same nucleus, and were expressed as arbitrary fluorescence units (AFUs). Data were assigned to specific cell types as determined by histochemistry.
The mice were separated into two groups for pretreatment with low or high doses of the test compounds. […] The low dose group received half the dose of the high dose group (50, 50, 30 or 10 mg/kg, respectively). […] Cochleae and kidneys were dissected for immunostaining and ICA analyses of Pt-GG adduct levels in specific cell types (Figure 8). In tissue sections from mice pretreated with quinine or butylscopolamine no inhibition of DNA platination was observed, independent of the dosing, in either of the three target cell types (renal tubulus epithelium cells (Figure 8 A), cochlear marginal cells (Figure 8B) and outer hair cells (Figure 8 C)). […]

In the case of `CCCC[N+]1(C)[C@@H]2C[C@@H](OC(=O)[C@H](CO)c3ccccc3)C[C@H]1[C@@H]1O[C@@H]12` (stereo partly drawn) [butylscopolamine], the “inhibition of DNA platination in the three target cell types” value is reported as “no inhibition”.
With `C=C[C@H]1C[N@@]2CC[C@H]1C[C@H]2[C@H](O)c1ccnc2ccc(OC)cc12` [quinine] the “inhibition of DNA platination in the three target cell types” value was “no inhibition”.
In the case of `CNC(=C[N+](=O)[O-])NCCSCc1ccc(CN(C)C)o1` [ranitidine], the “reduction of adduct levels in all three target cell types” value (high dose (ranitidine 100 mg/kg) i.p. 1 h before cis-platin 10 mg/kg, renal tubulus epithelium, cochlear marginal and outer hair cells) is reported as 15 - 20%.
